Data from patent publication US20040171795A1, “Novel peptides” (priority 2000, published 2004).
pIC50: −log10 of the molar value.

Experiments:
Vero cell = experiment: Introduction of FITC-labeled oligonucleotide, fluorescence microscopy; assay type: cell-based, monkey; details: 300 nM FITC-labeled oligonucleotide, 2.5 μM peptide
Method: Vero cell was inoculated in the well of a chamber slide (Lab-Tek II chamber slide, size 4 well, manufactured by NALGEN NUNC) at a rate of 1×10^5 cells/well, and the cells were cultivated in DMEM supplemented with 10% FBS in 5% CO2 atmosphere at 37° C. for 24 hours. After removing the medium, opti-MEM containing 300 nM FITC-labeled oligonucleotide prepared in Example 6 and 2.5 μM of the peptide of SEQ ID NO:1 prepared in Example 1 was added, and the cultivation was continued for 4 hours. The medium was replaced with DMEM supplemented with 10% FBS, and the cultivation was continued in 5% CO2 atmosphere at 37° C. for another 24 hours. After washing the cell with PBS, the cells were fixed by using PBS containing 4% paraformaldehyde, and accumulation of FITC-labeled oligonucleotide in the cell nucleus was confirmed by using a fluorescence microscope (AH-3, manufactured by Olympus). […] On the other hand, accumulation of FITC-labeled oligonucleotide in the cell was not confirmed in the absence of the peptide of SEQ ID NO:1.

[1] = Affinity by surface plasmon resonance (Biacore 2000), flow cell 2; assay type: binding; details: SPR, HPA chip, 0.1 mg/mL BSA; compared with flow cell 1
Method: The specific affinity of the peptide for phosphatidyl serine was evaluated by means of surface plasmon resonance (SPR) using Biacore 2000 (manufactured by Biacore). To be more specific, phosphatidyl choline was immobilized on flow cell 1, and 50% of phosphatidyl serine and 50% of phosphatidyl choline were immobilized on flow cell 2 of HPA chip (manufactured by Biacore), and ability of the peptide to bind to the phospholipid was evaluated in the presence of 0.1 mg/mL BSA to thereby evaluate the affinity.

[2] = Affinity for phosphatidyl serine (EIA, inhibition of human Factor VIII binding); details: class of IC50 for inhibiting human Factor VIII binding, 5% BSA
Method: The specific affinity of the peptide for phosphatidyl serine was evaluated by measuring activity of the peptide for inhibiting the binding of the human Factor VIII to phosphatidyl serine by using human Factor VIII which is known to bind to phosphatidyl serine but not to phosphatidyl choline in the presence of serum albumin. To be more specific, 100 μL of ethanol solution containing 10 μg/mL of phospholipids at a phosphatidyl serine (manufactured by SIGMA): phosphatidyl choline (manufactured by SIGMA) ratio of 3:7 was added to the wells of a 96 well plate (Immulon I, manufactured by Dynatech), and exsiccated by using a centrifugal evaporator (EC-95C, manufactured by Sakuma Seisakusho) at 40° C. for 40 minutes. 200 μL each of TBS (10 mM Tris-HCl (pH 7.4) containing 1% bovine serum albumin (BSA Fraction V, hereinafter referred to as BSA, manufactured by Seikagaku Corporation) and 0.9% (W/V) NaCl solution were added to each well, and the wells were blocked by allowing the plate to stand at 37° C. for 2.5 hours. After washing the plate with water, 100 μL of TBS solution supplemented with 5% BSA mixed with human Factor VIII (manufactured by American Diagnostica) at a final concentration 1 μg/mL and the peptide of predetermined dose prepared in Example 1 was added to each well, and the reaction was allowed to take place at 4° C. for 24 hours.
After the completion of the reaction, the human Factor VIII that became bound to the phosphatidyl serine was measured by enzyme immunoassay (EIA) in accordance with the general procedure described in a book (“Enzyme Immunoassay (3rd ed.)”, Eiji Ishikawa et al., Igaku-Shoin, 1987). To be more specific, the measurement was conducted by using anti-human Factor VIII mouse monoclonal antibody (ESH8, manufactured by American Diagnostica) for the primary antibody, horseradish peroxidase-labeled anti-mouse IgG antibody (P0260, manufactured by Daco) for the secondary antibody, and tetramethylbenzidine for the chromogenic substrate, and measuring the absorption at a wavelength of 450 nm by using a reference wavelength of 630 nm on a spectrophotometer (NJ-2100, manufactured by Intermed).
Intensity of the affinity of the peptide for the phosphatidyl serine was evaluated by using the value obtained by subtracting the absorption of the well having no human Factor VIII added thereto from the absorption of the well having only the human Factor VIII added thereto as the control value (100%), and designating the peptide concentration at which the value 0.5 was obtained when the value obtained by subtracting the absorption of the well having only the peptide added thereto from the absorption of the well having a mixture of the human Factor VIII and the peptide added thereto were divided by the control value as the IC50 value, and evaluating the intensity to be ++ when the IC50 value was up to 1 μM, and +when the intensity was more than 1 μM but not more than 10 μM. It is to be noted that the specific affinity was evaluated to be none when the intensity was 10 μM or more.

[3] = Measurement of CD spectrum; assay type: physicochemical; details: aqueous solution solely containing an inorganic salt, pH 7, 35° C.
Method: The peptide dissolved in 10 mM phosphate buffer (pH=7) containing 50 mM NaCl was evaluated for its CD spectrum in the presence and in the absence of 5 mM SDS by using a circular dichroism spectrophotometer (J-500A, manufactured by JASCO). The cell length was 1 mm. The measurement was conducted at 35° C. for 6 times in total. FIGS. 7 to 9 are respectively views showing mean residue ellipticity in CD spectroscopy of the peptide of SEQ ID NO:1, the peptide of SEQ ID NO:4 and the peptide of SEQ ID NO:16. As evident in FIGS. 7 to 9, the mean residue ellipticity obtained in the presence of SDS was the so called W curve and local minimums were found in the areas at the wavelength of 205 to 210 nm and 220 to 225 nm, and α-helix structure was thereby confirmed.

plasmid (pUC119) = experiment: Binding ability to plasmid (electrophoresis); details: charge ratio (+/−ratio) of 3
Method: The plasmid prepared by the procedure described in Example 7 (pUC119; final concentration, 20 μg/mL) and the peptides prepared by the procedure described in Examples 1 to 3 were mixed in 20 mM Tris HCl buffer (pH=7.2) containing 150 mM NaCl at a charge ratio (+/−ratio) of 0 to 3, and the mixture was allowed to stand at 37° C. for 30 minutes. Electrophoresis was then conducted on 1% agarose gel to thereby determine the binding of the plasmid and the peptide.
The +/−ratio (charge ratio) indicated in FIG. 11 is the ratio of the number (+) of the positively-charged groups in the peptide to the number (−) of negatively-charged groups in the plasmid. As evident in FIG. 11, the amount of plasmid that became bound to the peptide increased with the increase in the charge ratio (+/−ratio), and the plasmid was fully bound to the peptide at a charge ratio (+/−ratio) of 3. The peptides of SEQ ID NO:2 to SEQ ID NO:24 were also found to bind at a charge ratio (+/−ratio) of 3.

Question: Which results are given for “SEQ ID NO: 1: peptide having the amino acid sequence of SEQ ID NO:1, made by solid phase synthesis (TRYLRIHPRSWVHQIALRLRYLRIHPRSWVHQIALRS; synthetic peptide using an automatic peptide synthesizer)”?
Answer: accumulation of FITC-labeled oligonucleotide in the cell nucleus (Vero cell): FITC-labeled oligonucleotide was accumulated in the cell nucleus; binding to flow cell 2 (50% phosphatidyl serine, 50% phosphatidyl choline) [1]: stronger; pIC50 [2]: > 6.00; α-helix structure in CD spectrum in the absence of SDS [3]: do not take α-helix structure; binding of plasmid to the peptide (plasmid (pUC119)): fully bound
